# Assay results reported in publication PMC11464717, “Structural basis for antibiotic transport and inhibition in PepT2” (Nature Communications, 2024).
# Where “and” joins values, the source holds several entries; their conditions need not be identical. Identical values can stand only once. Like-named read-outs stand apart in the source and are kept apart here. Where a SMILES comes first, the peptide text is derived from it.
# T1: rat PepT2 (Rattus norvegicus, UniProt Q63424)
# T1 construct: His-tagged GFP (C, cleaved yes); made in house; host or cells: HEK293F cells
# T1 sequence (Q63424 1-729): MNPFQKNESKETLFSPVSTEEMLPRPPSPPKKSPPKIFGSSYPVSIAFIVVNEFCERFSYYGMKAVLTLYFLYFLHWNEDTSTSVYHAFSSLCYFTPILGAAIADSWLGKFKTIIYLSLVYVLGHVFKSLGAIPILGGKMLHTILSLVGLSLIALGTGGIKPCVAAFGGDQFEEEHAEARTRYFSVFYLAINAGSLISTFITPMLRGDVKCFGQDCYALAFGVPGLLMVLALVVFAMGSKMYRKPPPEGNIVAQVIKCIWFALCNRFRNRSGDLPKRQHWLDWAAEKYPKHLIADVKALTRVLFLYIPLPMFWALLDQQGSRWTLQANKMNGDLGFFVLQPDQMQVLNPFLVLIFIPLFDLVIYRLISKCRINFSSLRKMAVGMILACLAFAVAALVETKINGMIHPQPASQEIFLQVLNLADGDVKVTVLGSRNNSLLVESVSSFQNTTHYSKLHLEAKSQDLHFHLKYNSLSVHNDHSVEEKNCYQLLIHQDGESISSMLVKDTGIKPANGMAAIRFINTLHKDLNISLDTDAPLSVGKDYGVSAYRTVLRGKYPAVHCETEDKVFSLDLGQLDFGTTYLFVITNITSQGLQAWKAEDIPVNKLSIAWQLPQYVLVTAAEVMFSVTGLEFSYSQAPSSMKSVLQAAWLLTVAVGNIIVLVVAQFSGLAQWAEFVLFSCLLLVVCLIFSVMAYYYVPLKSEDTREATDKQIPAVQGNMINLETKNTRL
# Assays:
# rat PepT2 [1] = target: T1, rat PepT2; experiment: SSM-based electrophysiology (SURFE2R) of reconstituted PepT2; format: biochemical; settings: result in words
# Procedure: (§1) PepT2 was reconstituted into liposomes consisting of a 3:1 POPE:POPG (Avanti polar lipids, USA, Cat. No. 850757 C, 840457 C) using biobeads. The lipids were dried to obtain a thin film using a rotary evaporator and washed twice in pentane before being resuspended at 10 mg mL^–1 in lipid buffer (50 mM potassium phosphate at pH 7.5). These lipid vesicles were frozen and thawed twice in liquid nitrogen and stored at −80 °C until required. For reconstitution, the lipids were thawed and then extruded first through a 0.8-μm filter and then through a 0.4-μm filter. Purified PepT2 at 0.3 μg μl^−1 was added to the lipids at a final lipid:protein ratio of 100:1 (w/w) for transport assays or 10:1 for solid support membrane (SSM) experiments and incubated for 1 h at room temperature, then for a further 1 h on ice. After this time, biobeads were added in batches. After 24 h biobeads were removed and the proteoliposomes harvested by centrifugation at 120,000 g for 40 min before resuspension in lipid buffer at a final protein concentration of 0.25 μg μl^−1, or 0.5 ug ul^−1 for liposomes for SSM. They were subjected to three rounds of freeze–thawing in liquid nitrogen before storage at −80 °C.
# SSM-based assays were performed on a SURFE^2R N1 (Nanion Technologies) with sensors prepared as follows. 50 μl of 0.5 mM 1-octadecanethiol solution in isopropanol was added to the sensor and left overnight. The sensor was rinsed three times with isopropanol and then three times with water before being allowed to dry. 1.5 ul of 7.5 μg/μl 1,2-diphytanoyl-sn-glycero-3-phosphocholin in n-decane was applied to the surface of the sensor. Immediately after this 50 ul of non-activating buffer were added and left for an hour at room temperature. Proteoliposomes were diluted (5 ul liposomes with 36 ul buffer) in non-activating buffer (20 mM HEPES, 140 mM KCl, 2 mM MgCl2 pH 7.2) and sonicated four times for 10 s in a water bath before application (2–6 μl) to the prepared 3 mm sensors. Sensors were incubated at room temperature and centrifugation at 2800 g for 30 min at 10 °C and incubated at room temperature for at least an hour prior to assaying. The activating buffer was made with the desired concentration of ligand (alanine, di-alanine, or the antibiotics of interest) in non-activating buffer. A single solution exchange workflow was used with activating buffer applied at 1 s and removed at 2 s. This technique was used to distinguish between antibiotics substrate (gives a current, similar to a known peptide control – di-alanine) and inhibitor (no current observed similar to a known non substrate, alanine) and raw traces from 1–3 s are shown in Fig. 1.
# rat PepT2 [2] = target: T1, rat PepT2; experiment: Inhibition of uptake of radioactive di-alanine peptide into PepT2 proteoliposomes (IC50); format: biochemical
# Procedure: as §1, with “The” for “PepT2 was reconstituted into liposomes consisting of a 3:1 POPE:POPG (Avanti polar lipids, USA, Cat. No. 850757 C, 840457 C) using biobeads. The”
# The reaction was initiated through the addition of valinomycin at 1 μM and stopped after 4 minutes by rapidly filtering onto 0.22-μm filters, which were then washed with 2 × 2 mL cold water. […] Experiments were performed three times (from at least 2 independent purifications and reconstitutions) to generate an overall mean and s.d.
# rat PepT2 [3] = target: T1, rat PepT2; experiment: Counterflow transport assay in PepT2 proteoliposomes; format: biochemical; settings: for Counterflow transport, individual experiments (source data Fig 1d): relative to di-alanine; for Counterflow activity relative to L-Ala-L-Ala: Supplementary Table 2, RnPepT2 reconstituted liposome assay; for Ability to drive transport in counterflow: result in words, cloxacillin also at 10 mM
# Procedure: as §1
# Proteoliposomes were harvested through centrifugation before resuspending in counterflow buffer (50 mM potassium phosphate pH 7.5) containing 0.5 mM peptide or antibiotic (unless stated otherwise) or water as the negative control and were subjected to four rounds of freeze thawing in liquid nitrogen to fully distribute the buffer and ligand. The proteoliposomes were then extruded through a 0.2-μm filter. Transport was initiated by diluting into counterflow buffer containing 40 μM di-alanine with trace amounts of ^3H di-alanine, transport was allowed to proceed for 5 minutes before termination of the experiments through rapidly filtering onto 0.22-μm filters, which were then washed with 2 × 2 mL cold water. The amount of peptide transported inside the liposomes was calculated as above. Experiments were performed a minimal of five times and plotted as the level of transport for each ligand compared to the level observed with di-alanine as a percentage.
# PepT2 = settings: cell-based assays, inhibition of a radioactive reporter peptide; cited from earlier work
# [4] = target: T2, PepT2 (SLC15A2) from Rattus norvegicus (Rattus norvegicus, UniProt Q63424)
# T2 construct: Proton-coupled peptide transporter PepT2 (SLC15A2), Rattus norvegicus; The extracellular domain is in the protein but was not built in the deposited models; also called rat PepT2; ratPepT2; source: HEK293F, transfected, purified (nickel NTA, TEV cleavage, SEC) in DDM:CHS; also reconstituted into POPE:POPG liposomes; not shown: GFP, C-terminal, cleaved; His tag, C-terminal, cleaved
# [5] = target: T2, PepT2 (SLC15A2) from Rattus norvegicus; experiment: cryo-EM structure; PepT2 after size exclusion (DDM:CHS) mixed with 1 mM antibiotic (cefadroxil, amoxicillin or cloxacillin) for one hour, then 1.2 molar excess of nanobody D8, on ice for at least 30 min; PepT2 at 5-6 mg/mL; settings: both partners purified
# [6] = rat PepT2 in liposomes, inhibition of 3H di-alanine uptake, 4 minutes, mean of n = 3 (SD), read-out: IC50
# [7] = 0.5 mM ligand, listed as Ala-Ala
# [8] = IC50, rat PepT2 in liposomes, inhibition of 3H di-alanine uptake, 4 minutes, mean of n = 3 (SD)
# [9] = single independent experiments, 3 per ligand, read-out: IC50, individual experiments (source data Fig 1c)
# [10] = 5 min, read-out: Counterflow activity relative to L-Ala-L-Ala
# [11] = Supplementary Table 2, RnPepT2 reconstituted liposome assay, read-out: IC50 (µM) relative to L-Ala-L-Ala
Molecule,Capacitance change / current on solid support membrane (rat PepT2 [1]),IC50 (rat PepT2 [2]; [6]),IC50 (rat PepT2 [2]; [9]),Counterflow activity relative to L-Ala-L-Ala (rat PepT2 [3]; [10]),Ability to drive transport in counterflow (rat PepT2 [3]),further results
"C[C@H](N)C(=O)N[C@@H](C)C(=O)O [di-alanine, L-Ala-L-Ala] (H-Ala-Ala-OH)",significant capacitance change,32 µM,–,–,–,"IC50 (rat PepT2 [2]; single independent experiments, 3 per ligand, listed as Ala-Ala, read-out: IC50, individual experiments (source data Fig 1c)): 34.6 µM and 31.2 µM and 29.4 µM; Counterflow transport, individual experiments (source data Fig 1d) (rat PepT2 [3]; [7]): 100 and 99.8 and 108.7 and 97.1 and 95.2; Counterflow transport, individual experiments (source data Fig 5a) (rat PepT2 [3]; [7]): 97.2 and 101.1 and 99.1 and 100.3; Counterflow activity relative to L-Ala-L-Ala (rat PepT2 [3]): 100"
"Cc1onc(-c2ccccc2Cl)c1C(=O)N[C@@H]1C(=O)N2[C@@H]1SC(C)(C)[C@@H]2C(=O)O [Cloxacillin, cloxacillin]",–,–,180 µM and 220 µM and 210 µM,0%,unable to drive transport,"IC50 (rat PepT2 [2]; [8]): 203 µM; Ki (PepT2): 1000 µM; Counterflow transport, individual experiments (source data Fig 1d) (rat PepT2 [3]; 0.5 mM ligand): 4.1 and 3.2 and 4 and 1 and 3.1; Counterflow transport, individual experiments (source data Fig 1d) (rat PepT2 [3]; 10 mM ligand): 2.7 and 1.2 and 5.4 and 3.4 and 2.5"
"N[C@@H](CCCCNC(=O)OCc1ccc([N+](=O)[O-])cc1)C(=O)N1CCC[C@H]1C(=O)O [LZNP, Lys [Z(NO2)]-Proline]",–,–,–,–,–,"Counterflow transport, individual experiments (source data Fig 1d) (rat PepT2 [3]; 0.5 mM ligand): 3.8 and 4.1 and 6.1 and 5.4"
"N[C@@H](C(=O)N[C@@H]1C(=O)N2C(C(=O)O)=C(Cl)CS[C@H]12)c1ccccc1 [Cefaclor, cefaclor]",–,–,55 µM and 58 µM and 42 µM,76%,–,"Counterflow transport, individual experiments (source data Fig 5a) (rat PepT2 [3]; 0.5 mM ligand): 82 and 72.2 and 77.1 and 71.3; Counterflow activity relative to di-alanine (rat PepT2 [3]; uptake of 3H di-alanine, 5 minutes, level relative to di-alanine, 0.5 mM ligand unless stated otherwise): 76%"
"CC1=C(C(=O)O)N2C(=O)[C@@H](NC(=O)[C@H](N)c3ccc(O)cc3)[C@H]2SC1 [Cefadroxil, cefadroxil]",significant capacitance change,19 µM,22 µM and 17 µM,120%,more effectively than di-alanine,"IC50 (rat PepT2 [2]; [11]): 20 µM; Ki (PepT2): 3 µM; Counterflow transport, individual experiments (source data Fig 1d) (rat PepT2 [3]; 0.5 mM ligand): 117 and 120.6 and 118 and 125 and 128"
"CC1(C)S[C@@H]2[C@H](NC(=O)Cc3ccccc3)C(=O)N2[C@H]1C(=O)O [Benzylpenicillin, benzylpenicillin]",–,–,–,0%,cannot transport,"Counterflow transport, individual experiments (source data Fig 5a) (rat PepT2 [3]; 10 mM ligand): 7.2 and 6.8 and 6.2 and 4.1"
di-alanine peptide,–,–,–,–,–,IC50 of inhibition of the uptake of radioactive (3H) di-alanine into PepT2 proteoliposomes [4]: 32 µM
"CC1(C)S[C@@H]2[C@H](NC(=O)[C@H](N)c3ccc(O)cc3)C(=O)N2[C@H]1C(=O)O [Amoxicillin, amoxicillin]",significant capacitance change,270 µM,225 µM and 301 µM and 280 µM,33%,–,"Ki (PepT2): 200 to 430 µM; Counterflow transport, individual experiments (source data Fig 1d) (rat PepT2 [3]; 0.5 mM ligand, listed as Amoxacillin): 29 and 39.2 and 34.1 and 35 and 28"
"CC1(C)S[C@@H]2[C@H](NC(=O)[C@H](N)c3ccccc3)C(=O)N2[C@H]1C(=O)O [Ampicillin, ampicillin]",–,–,–,–,–,IC50 (rat PepT2 [2]; [8]): 750 µM
"nanobody (D8) (VHH, The nanobody was in the complexes solved here (PDB 9BIR, 9BIS, 9BIT, 9BIU); Its expression plasmid is deposited at Addgene; also called the nanobody) VHH: QVQLVESGGGLVQPGGSLRLLCVASGRPFNDYDMGWFRQAPGKEREFVASISWSGRVTDYSDSMKGRCTVSRDNAKGTMFLQMSNLVPRDTAVYYCAAARRRWTFKATNTEEFYETWGQGTQVTVSS",–,–,–,–,–,binding result [5]: binds

# Continued, in another order:
Capacitance change / current on solid support membrane (rat PepT2 [1]),IC50 (rat PepT2 [2]; [6]),IC50 (rat PepT2 [2]; [9]),Counterflow activity relative to L-Ala-L-Ala (rat PepT2 [3]; [10]),Ability to drive transport in counterflow (rat PepT2 [3]),Molecule,further results
–,500 µM,–,0%,cannot transport,"CO[C@@]1(NC(=O)C(C(=O)O)c2ccc(O)cc2)C(=O)N2C(C(=O)O)=C(CSc3nnnn3C)CO[C@@H]21 (stereo partly drawn) [Moxalactam, moxalactam]","Counterflow transport, individual experiments (source data Fig 5a) (rat PepT2 [3]; 1 mM ligand): 5.6 and 5.3 and 6.5 and 4.2"
non-transported,–,–,–,–,C[C@H](N)C(=O)O [alanine],–
–,–,–,0%,cannot transport,"Nc1nc(/C(=C/CC(=O)O)C(=O)N[C@@H]2C(=O)N3C(C(=O)O)=CCS[C@H]23)cs1 [Ceftibuten, ceftibuten]","IC50 (rat PepT2 [2]; [11]): 1200 µM; IC50 (rat PepT2 [2]; rat PepT2 in liposomes, inhibition of 3H di-alanine uptake, read-out: IC50): 1000 µM; Counterflow transport, individual experiments (source data Fig 5a) (rat PepT2 [3]; 4 mM ligand): 6.7 and 5.6 and 6.9"
